Measured values as given in patent publication US20260373165A1, “PHARMACEUTICAL COMBINATIONS AND COMPOSITIONS, AND METHODS OF USE THEREOF” (SHENZHEN HIGHTIDE BIOPHARMACEUTICAL LTD., priority 2022, published 2026).
“Also recorded” adds a separate entry of the source.

Assays:
Assay type in all cases: in vivo, mouse (C57BL/6J male, 60% HFD DIO)
[1] = Example 2: body weight and body weight change rate, combined administration of HTD1801 and dapagliflozin or empagliflozin in DIO obesity model; conditions: HTD1801 250 mpk, dapagliflozin 10 mpk, empagliflozin 15 mpk p.o. QD, semaglutide 10 nmol/kg s.c. Q3D
From the text: (§1) After 5-6-week-old C57BL/6J male mice were acclimatized for 1 week, the weight of each mouse was weighed, and the mice were randomly divided into a control group and a model group by taking the weight as a main index, where 12 mice in the control group were fed with common feed (CD), and the mice in the remaining model group were fed with 60% high-fat feed (60% HFD) for 10-12 weeks to construct a DIO obesity model, with the average body weight being not less than 40 g. The mice fed with 60% HFD were grabbed and acclimatized with a solvent for 3 days, where the acclimatization with a solvent was performed by oral gavage of 0.5% CMC-Na, once daily.
(§2) The food intake, the body weight, the body fat ratio, and the insulin level of the mice were respectively measured, followed by fasting blood glucose level, and the mice were randomly grouped according to Table 12 by taking the body weight as an index, and the remaining ungrouped mice were euthanized. After grouping, each group of mice was administered according to Table 12, the day of administration was defined as DO, and the administration volume of each drug was determined based on the results obtained by the calculation of 5 μL/g× mouse body weight (g).
(§3) For the combined administration group, the administration sequence and the administration time were kept consistent at each administration. The mice were continuously fed with high-fat feed during the administration period until the administration was finished. During administration, 1 food intake was measured per week (difference in feed weights at an interval of 24 h was measured); each group of mice was weighed once daily; blood was collected from the tail tip on day 16 and day 30, respectively, so as to measure fasting blood glucose levels once (blood was collected after fasting from 9:00 am to 3:[…]); on day 24 of administration (D23), the body fat ratio and the lean mass of each group of mice were measured by MRI (the measurement period was kept consistent with that before grouping); after 25 days of administration intervention (day 24), each group of mice was fasted for 6 h and subjected to OGTT (0 min, 15 min, 30 min, 60 min, 90 min, 120 min) to detect their blood glucose levels; after 29 days of administration intervention (day 28), each group of mice was fasted for 6 h and subjected to OGTT (0 min, 15 min, 30 min, 60 min, 90 min, 120 min), and meanwhile subjected to blood sampling via submaxillary vein (0 min, 15 min, 30 min, about 30 μL of blood sampled each time), and then the blood plasma was separated for detecting the insulin level by ELISA, where the separated blood plasma was more than 10 μL; the next day (D30) at the end of administration was set as the test endpoint, and the mice were fasted for 6 h in the morning and subjected to fasting blood glucose level measurement; subsequently, the mice were euthanized with CO2, blood was collected from the heart of each mouse for analysis, and each group of mice was dissected; the liver and subcutaneous, epididymal and mesenteric fat was collected, photographed and weighed, respectively.

[2] = Example 2: body fat mass by MRI on day 23
From the text: as §1, §2, §3
The body weight, the body fat mass and the body fat ratio of each animal in groups G1 to G8 were measured on day 23 and averaged for each group, and the results are shown in Table 15 below, and FIGS. 21 and 22.

[3] = Example 2: lean mass by MRI on day 23
From the text: as §1, §2, §3
The body weight, the lean mass and the lean ratio of each animal in groups G1 to G8 were measured on day 23 and averaged for each group, and the results are shown in Table 16 below, and FIGS. 23 and 24.

[4] = mean, day 23, HTD1801 250 mpk, dapagliflozin 10 mpk, empagliflozin 15 mpk p.o. QD

OC[C@H]1O[C@@H](c2ccc(Cl)c(Cc3ccc(O[C@H]4CCOC4)cc3)c2)[C@H](O)[C@@H](O)[C@@H]1O [Empagliflozin, empagliflozin]
body weight change / weight loss effect (in words) [1]: basically kept unchanged; also recorded: could not achieve the weight loss effect
Body weight (mean) ([1]; day 0 (baseline)): 46.2 g
Body weight change rate ([1]; day 0 (baseline)): 0.0%
Body weight (mean) ([1]; day 1): 46.3 g
Body weight change rate ([1]; day 1): 0.4%
Body weight (mean) ([1]; day 2): 46.1 g
Body weight change rate ([1]; day 2): −0.2%
Body weight (mean) ([1]; day 3): 46.0 g
Body weight change rate ([1]; day 3): −0.3%
Body weight (mean) ([1]; day 4): 46.0 g
Body weight change rate ([1]; day 4): −0.5%
Body weight (mean) ([1]; day 5): 45.6 g
Body weight change rate ([1]; day 5): −1.3%
Body weight (mean) ([1]; day 6): 45.8 g
Body weight change rate ([1]; day 6): −0.8%
Body weight (mean) ([1]; day 7): 46.0 g
Body weight change rate ([1]; day 7): −0.4%
Body weight (mean) ([1]; day 8): 45.6 g
Body weight change rate ([1]; day 8): −1.2%
Body weight (mean) ([1]; day 9): 45.5 g
Body weight change rate ([1]; day 9): −1.5%
Body weight (mean) ([1]; day 10): 45.4 g
Body weight change rate ([1]; day 10): −1.7%
Body weight (mean) ([1]; day 11): 45.6 g
Body weight change rate ([1]; day 11): −1.2%
Body weight (mean) ([1]; day 12): 45.5 g
Body weight change rate ([1]; day 12): −1.6%
Body weight (mean) ([1]; day 13): 45.3 g
Body weight change rate ([1]; day 13): −1.9%
Body weight (mean) ([1]; day 14): 45.6 g
Body weight change rate ([1]; day 14): −1.3%
Body weight (mean) ([1]; day 15): 45.6 g
Body weight change rate ([1]; day 15): −1.4%
Body weight (mean) ([1]; day 16): 45.3 g
Body weight change rate ([1]; day 16): −1.9%
Body weight (mean) ([1]; day 17): 45.7 g
Body weight change rate ([1]; day 17): −1.1%
Body weight (mean) ([1]; day 18): 45.7 g
Body weight change rate ([1]; day 18): −1.0%
Body weight (mean) ([1]; day 19): 45.7 g
Body weight change rate ([1]; day 19): −1.2%
Body weight (mean) ([1]; day 20): 45.8 g
Body weight change rate ([1]; day 20): −0.8%
Body weight (mean) ([1]; day 21): 46.0 g
Body weight change rate ([1]; day 21): −0.4%
Body weight (mean) ([1]; day 22): 46.2 g
Body weight change rate ([1]; day 22): −0.1%
Body weight (mean) ([1]; day 23): 46.1 g
Body weight change rate ([1]; day 23): −0.1%
Body weight (mean) ([1]; day 24): 45.7 g
Body weight change rate ([1]; day 24): −1.1%
Body weight (mean) ([1]; day 25): 46.0 g
Body weight change rate ([1]; day 25): −0.4%
Body weight (mean) ([1]; day 26): 46.6 g
Body weight change rate ([1]; day 26): 0.9%
Body weight (mean) ([1]; day 27): 46.5 g
Body weight change rate ([1]; day 27): 0.7%
Body weight (mean) ([1]; day 28): 46.0 g
Body weight change rate ([1]; day 28): −0.4%
Body weight (mean) ([1]; day 29): 46.5 g
Body weight change rate ([1]; day 29): 0.8%
body fat mass and body fat ratio (in words) ([2]; day 23, relative to control group G2): increased
Body weight ([2]; mean, day 23 (Table 15), HTD1801 250 mpk, dapagliflozin 10 mpk, empagliflozin 15 mpk p.o. QD): 46.8 g
Body fat ratio [2, 4]: 49.3%
Fat (body fat mass) [2, 4]: 23.0 g
lean ratio (in words) ([3]; day 23, relative to model control group G2): slightly decreased
Body weight ([3]; mean, day 23 (Table 16), HTD1801 250 mpk, dapagliflozin 10 mpk, empagliflozin 15 mpk p.o. QD): 46.8 g
Lean (lean mass) [3, 4]: 4.2 g
Lean ratio [3, 4]: 9.1%
